Columns and labels:
Human δ-opioid (DOP) = target: T1, Human δ-opioid (DOP) (Homo sapiens, UniProt P41143); experiment: Radioligand binding, human δ-opioid (DOP) membranes, FlashPlate, [3H]-Bremazocine; conditions: compound at 10 μM; [3H]-Bremazocine
T1 construct: purchased Perkin Elmer Biosignal
Procedure, shortened: (§1)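 Cloned human receptor membranes were coated onto FlashPlate wells and incubated with radioligand and compound (added from a 0.5 mM DMSO daughter plate) for 1 hour at room temperature in the dark. Scintillation counting gave percent inhibition, with DMSO defining total and reference ligand defining non-specific binding.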

Human κ-Opioid (KOP) = target: T2, Human κ-Opioid (KOP) (Homo sapiens, UniProt P41145); experiment: Radioligand binding, human κ-opioid (KOP) membranes, filtration, [3H]-Diprenorphine; conditions: compound at 10 μM, [3H]-Diprenorphine
T2 construct: purchased Perkin Elmer Biosignal
T2 sequence (P41145 whole entry): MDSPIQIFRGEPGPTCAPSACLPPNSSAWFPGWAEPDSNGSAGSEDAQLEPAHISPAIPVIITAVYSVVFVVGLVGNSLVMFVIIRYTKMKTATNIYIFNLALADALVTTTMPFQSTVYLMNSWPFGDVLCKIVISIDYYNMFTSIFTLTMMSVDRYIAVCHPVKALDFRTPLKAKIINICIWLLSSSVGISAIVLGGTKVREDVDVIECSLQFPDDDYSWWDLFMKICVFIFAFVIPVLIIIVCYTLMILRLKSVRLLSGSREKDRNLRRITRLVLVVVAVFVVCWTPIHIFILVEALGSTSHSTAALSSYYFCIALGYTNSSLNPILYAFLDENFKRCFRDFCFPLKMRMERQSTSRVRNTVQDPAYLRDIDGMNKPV
Procedure, shortened: (§2)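 Percent inhibition of radioligand binding measured on recombinant human membranes: NK1 with [125I]-Substance P, KOP with [3H]-Diprenorphine. Incubation 1 h at room temperature, then harvest onto 0.3% PEI-soaked filters, cold Tris-HCl pH 7.4 washes and scintillation counting; non-specific binding from reference ligand wells.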

Human Melanocortin (MC3) = target: T3, Human Melanocortin (MC3) (Homo sapiens, UniProt P41968); experiment: Radioligand binding, human melanocortin MC3 membranes, FlashPlate, [125I]-NDP-αMSH; conditions: compound at 10 μM, [125I]-NDP-αMSH
T3 construct: purchased Perkin Elmer Biosignal
T3 sequence (P41968 whole entry): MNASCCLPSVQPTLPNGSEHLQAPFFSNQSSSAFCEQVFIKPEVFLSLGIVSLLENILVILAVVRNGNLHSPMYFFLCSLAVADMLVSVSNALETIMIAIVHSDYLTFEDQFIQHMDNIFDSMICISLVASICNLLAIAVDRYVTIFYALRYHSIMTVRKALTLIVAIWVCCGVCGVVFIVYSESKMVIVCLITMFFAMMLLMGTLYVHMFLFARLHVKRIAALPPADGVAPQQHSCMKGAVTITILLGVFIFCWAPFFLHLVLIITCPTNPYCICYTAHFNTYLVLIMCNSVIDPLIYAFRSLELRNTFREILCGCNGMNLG
Procedure, shortened: as §1

Human Melanocortin (MC4) = target: T4, Human Melanocortin (MC4) (Homo sapiens, UniProt P32245); experiment: Radioligand binding, human melanocortin MC4 membranes, FlashPlate, [125I]-NDP-αMSH; conditions: compound at 10 μM, [125I]-NDP-αMSH
T4 construct: purchased Perkin Elmer Biosignal
T4 sequence (P32245 whole entry): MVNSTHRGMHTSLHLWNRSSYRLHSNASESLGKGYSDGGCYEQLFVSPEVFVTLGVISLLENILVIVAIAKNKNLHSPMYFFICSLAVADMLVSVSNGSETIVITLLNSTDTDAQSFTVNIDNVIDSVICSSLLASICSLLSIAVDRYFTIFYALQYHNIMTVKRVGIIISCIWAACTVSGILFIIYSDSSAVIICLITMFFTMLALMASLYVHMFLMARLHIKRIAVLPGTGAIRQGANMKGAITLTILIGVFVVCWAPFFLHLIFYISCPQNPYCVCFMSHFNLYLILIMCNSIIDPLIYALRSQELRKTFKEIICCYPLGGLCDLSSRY
Procedure, shortened: as §1

Human melanocortin (MC5) = target: T5, Human melanocortin (MC5) (Homo sapiens, UniProt P33032); experiment: Radioligand binding, human melanocortin MC5 membranes, FlashPlate, [125I]-NDP-αMSH; conditions: compound at 10 μM; [125I]-NDP-αMSH
T5 construct: purchased Perkin Elmer Biosignal
T5 sequence (P33032 whole entry): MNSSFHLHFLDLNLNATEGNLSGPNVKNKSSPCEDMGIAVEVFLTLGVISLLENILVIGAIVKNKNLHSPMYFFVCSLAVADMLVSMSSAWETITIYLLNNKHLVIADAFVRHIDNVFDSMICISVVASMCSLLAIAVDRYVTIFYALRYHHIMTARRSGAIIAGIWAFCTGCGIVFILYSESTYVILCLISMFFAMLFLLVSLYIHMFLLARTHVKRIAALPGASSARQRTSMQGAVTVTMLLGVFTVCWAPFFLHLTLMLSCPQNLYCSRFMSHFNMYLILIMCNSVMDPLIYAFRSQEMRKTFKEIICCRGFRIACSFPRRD
Procedure, shortened: as §1

[1] = target: T6, Human melanin-concentrating hormone (MCH1) (Homo sapiens, UniProt Q99705); experiment: Radioligand binding, human melanin-concentrating hormone MCH1 membranes, FlashPlate, [125I]-S36057; conditions: compound at 10 μM; [125I]-S36057
T6 construct: purchased Perkin Elmer Biosignal
T6 sequence (Q99705 whole entry): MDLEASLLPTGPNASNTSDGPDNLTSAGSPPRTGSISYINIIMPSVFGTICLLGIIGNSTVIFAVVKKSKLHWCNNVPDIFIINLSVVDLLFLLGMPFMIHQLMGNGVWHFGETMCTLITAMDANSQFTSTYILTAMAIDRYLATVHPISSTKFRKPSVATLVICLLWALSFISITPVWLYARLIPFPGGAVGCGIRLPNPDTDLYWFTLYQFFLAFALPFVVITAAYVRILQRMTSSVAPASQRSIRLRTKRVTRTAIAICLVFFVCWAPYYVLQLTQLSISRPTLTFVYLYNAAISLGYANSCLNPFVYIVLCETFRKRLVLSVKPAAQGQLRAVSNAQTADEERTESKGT
Procedure, shortened: as §1

Human μ-opioid (MOP) = target: T7, Human μ-opioid (MOP) (Homo sapiens, UniProt P35372); experiment: Radioligand binding, human μ-opioid (MOP) membranes, FlashPlate, [3H]-Naloxone; conditions: compound at 10 μM; [3H]-Naloxone
T7 construct: purchased Perkin Elmer Biosignal
T7 sequence (P35372 whole entry): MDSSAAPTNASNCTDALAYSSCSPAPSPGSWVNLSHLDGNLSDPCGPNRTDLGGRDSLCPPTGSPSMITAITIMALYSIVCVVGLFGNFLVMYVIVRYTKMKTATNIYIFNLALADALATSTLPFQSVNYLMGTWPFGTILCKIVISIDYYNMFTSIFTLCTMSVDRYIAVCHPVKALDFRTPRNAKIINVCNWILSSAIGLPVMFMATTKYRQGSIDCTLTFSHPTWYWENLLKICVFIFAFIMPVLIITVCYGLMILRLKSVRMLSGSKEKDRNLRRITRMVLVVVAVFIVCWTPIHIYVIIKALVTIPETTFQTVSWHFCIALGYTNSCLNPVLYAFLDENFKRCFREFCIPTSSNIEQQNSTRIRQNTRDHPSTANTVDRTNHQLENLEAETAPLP
Procedure, shortened: as §1

Human neurokinin (NK1) = target: T8, Human neurokinin (NK1) (Homo sapiens, UniProt P25103); experiment: Radioligand binding, human neurokinin NK1 membranes, filtration, [125I]-Substance P; conditions: compound at 10 μM; [125I]-Substance P
T8 construct: purchased Perkin Elmer Biosignal
T8 sequence (P25103 whole entry): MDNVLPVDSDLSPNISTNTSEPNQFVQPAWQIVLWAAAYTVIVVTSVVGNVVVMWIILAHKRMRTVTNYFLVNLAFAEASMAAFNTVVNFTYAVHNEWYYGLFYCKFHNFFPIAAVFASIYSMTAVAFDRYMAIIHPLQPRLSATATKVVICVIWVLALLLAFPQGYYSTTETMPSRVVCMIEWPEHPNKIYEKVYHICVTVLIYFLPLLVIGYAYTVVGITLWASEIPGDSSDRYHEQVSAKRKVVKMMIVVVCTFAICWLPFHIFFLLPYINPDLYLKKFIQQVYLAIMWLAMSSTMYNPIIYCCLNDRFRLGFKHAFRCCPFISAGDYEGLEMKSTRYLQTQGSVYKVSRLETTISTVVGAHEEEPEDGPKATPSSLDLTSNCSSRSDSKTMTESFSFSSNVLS
Procedure, shortened: as §2

[2] = target: T9, Human neuropeptide Y (NPY-Y1) (Homo sapiens, UniProt P25929); experiment: Radioligand binding, human neuropeptide Y NPY-Y1 membranes, FlashPlate, [125I]-PYY; conditions: compound at 10 μM; [125I]-PYY
T9 construct: purchased Perkin Elmer Biosignal
T9 sequence (P25929 1-384): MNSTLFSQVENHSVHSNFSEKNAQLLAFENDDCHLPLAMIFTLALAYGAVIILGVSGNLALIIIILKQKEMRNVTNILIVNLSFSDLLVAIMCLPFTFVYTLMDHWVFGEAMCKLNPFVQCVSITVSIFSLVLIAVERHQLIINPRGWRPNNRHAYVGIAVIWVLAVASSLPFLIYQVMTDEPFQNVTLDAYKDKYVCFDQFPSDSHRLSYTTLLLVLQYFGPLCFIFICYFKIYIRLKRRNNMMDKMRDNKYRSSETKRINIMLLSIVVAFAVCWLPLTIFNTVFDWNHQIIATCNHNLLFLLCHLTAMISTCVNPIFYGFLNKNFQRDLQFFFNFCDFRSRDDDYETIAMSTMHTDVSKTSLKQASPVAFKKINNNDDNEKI
Procedure, shortened: as §1

Human opioid (ORL1) = target: T10, Human opioid (ORL1) (Homo sapiens, UniProt P41146); experiment: Radioligand binding, human opioid ORL1 membranes, FlashPlate, [125I]-Nociceptin; conditions: compound at 10 μM; [125I]-Nociceptin
T10 construct: purchased Perkin Elmer Biosignal
T10 sequence (P41146 whole entry): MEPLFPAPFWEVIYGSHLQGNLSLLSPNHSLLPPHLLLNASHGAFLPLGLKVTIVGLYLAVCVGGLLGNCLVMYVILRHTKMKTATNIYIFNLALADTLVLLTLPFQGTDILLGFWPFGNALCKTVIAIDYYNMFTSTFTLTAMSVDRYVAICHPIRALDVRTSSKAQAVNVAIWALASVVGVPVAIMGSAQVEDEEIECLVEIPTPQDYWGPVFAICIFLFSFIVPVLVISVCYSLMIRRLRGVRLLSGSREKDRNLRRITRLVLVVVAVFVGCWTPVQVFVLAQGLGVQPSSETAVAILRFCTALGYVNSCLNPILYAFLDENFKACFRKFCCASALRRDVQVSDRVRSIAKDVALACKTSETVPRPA
Procedure, shortened: as §1

Mouse urotensin (mUR2) = target: T11, Mouse urotensin (mUR2) (Mus musculus, UniProt Q8VIH9); experiment: Radioligand binding, mouse urotensin mUR2 membranes, FlashPlate, [125I]-Urotensin II; conditions: compound at 10 μM; [125I]-Urotensin II
T11 construct: purchased Perkin Elmer Biosignal
T11 sequence (Q8VIH9 1-385): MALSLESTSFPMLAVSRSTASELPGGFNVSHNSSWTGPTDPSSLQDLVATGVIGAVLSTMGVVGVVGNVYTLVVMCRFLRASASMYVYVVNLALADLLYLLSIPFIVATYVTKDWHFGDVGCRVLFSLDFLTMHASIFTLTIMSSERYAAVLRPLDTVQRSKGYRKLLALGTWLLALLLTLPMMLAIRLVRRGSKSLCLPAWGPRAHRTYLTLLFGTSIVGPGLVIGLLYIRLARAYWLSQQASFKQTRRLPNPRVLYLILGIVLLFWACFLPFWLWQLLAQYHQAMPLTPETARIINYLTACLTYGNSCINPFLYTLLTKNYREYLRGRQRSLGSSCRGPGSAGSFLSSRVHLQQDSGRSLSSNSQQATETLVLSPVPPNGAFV
Procedure, shortened: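 Cloned mouse urotensin (mUR2) receptor membranes from Perkin Elmer Biosignal were immobilized in FlashPlate microplates using a proprietary coating. Each well got 19.5 μl buffer, then 0.5 μl of DMSO, reference ligand, or compound. Adding 5 μl of [125I]-Urotensin II, diluted to 5× final concentration in binding buffer, started binding. Plates were sealed with TopSeal-A and incubated 1 hour at room temperature in the dark. Wells were counted for 30 seconds each on a TopCount after a 60-second delay, and percentage inhibition was calculated.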

T1 sequence (P41143 whole entry): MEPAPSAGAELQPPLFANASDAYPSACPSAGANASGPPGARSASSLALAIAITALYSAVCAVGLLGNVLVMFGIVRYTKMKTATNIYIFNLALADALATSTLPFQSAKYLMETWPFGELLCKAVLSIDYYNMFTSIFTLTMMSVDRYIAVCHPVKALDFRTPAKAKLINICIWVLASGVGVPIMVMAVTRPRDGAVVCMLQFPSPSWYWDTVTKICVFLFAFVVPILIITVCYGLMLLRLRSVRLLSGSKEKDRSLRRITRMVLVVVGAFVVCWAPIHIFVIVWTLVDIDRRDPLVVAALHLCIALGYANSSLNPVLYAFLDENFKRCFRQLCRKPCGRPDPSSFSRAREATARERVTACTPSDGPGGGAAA

Structure (SMILES)	A1: inhibition of radioligand binding, human δ-opioid (DOP) (Human δ-opioid (DOP))	A2: inhibition of radioligand binding, human κ-opioid (KOP) (Human κ-Opioid (KOP); 10 µM)	A3: inhibition of radioligand binding, human melanocortin (MC3) (Human Melanocortin (MC3); 10 µM)	A4: inhibition of radioligand binding, human melanocortin (MC4) (Human Melanocortin (MC4); 10 µM)	A5: inhibition of radioligand binding, human melanocortin (MC5) (Human melanocortin (MC5))	A6: inhibition of radioligand binding, human melanin-concentrating hormone (MCH1) [1]	A7: inhibition of radioligand binding, human μ-opioid (MOP) (Human μ-opioid (MOP))	A8: inhibition of radioligand binding, human neurokinin (NK1) (Human neurokinin (NK1))	A9: inhibition of radioligand binding, human neuropeptide Y (NPY-Y1) [2]	A10: inhibition of radioligand binding, human opioid (ORL1) (Human opioid (ORL1))	A11: inhibition of radioligand binding, mouse urotensin (mUR2) (Mouse urotensin (mUR2))	A2: inhibition of radioligand binding, human κ-opioid (KOP) (Human κ-Opioid (KOP))	A3: inhibition of radioligand binding, human melanocortin (MC3) (Human Melanocortin (MC3))	A4: inhibition of radioligand binding, human melanocortin (MC4) (Human Melanocortin (MC4))
N=C(N)NCCC(=O)N[C@H]1C(OCc2ccc(Cl)cc2)O[C@H](COCc2ccccc2)[C@@H](O)[C@@H]1OCc1ccc(Cl)cc1 (stereo partly drawn) [compound 524]	− (“−” indicates less than 50% inhibition at 10 μM)	− (“−” indicates less than 50% inhibition at 10 μM)	− (“−” indicates less than 50% inhibition at 10 μM)	− (“−” indicates less than 50% inhibition at 10 μM)	+ (“+” indicates greater than 50% inhibition at 10 μM)	+ (“+” indicates greater than 50% inhibition at 10 μM)	− (“−” indicates less than 50% inhibition at 10 μM)	+ (“+” indicates greater than 50% inhibition at 10 μM)	− (“−” indicates less than 50% inhibition at 10 μM)	− (“−” indicates less than 50% inhibition at 10 μM)	− (“−” indicates less than 50% inhibition at 10 μM)	–	–	–
NCCC(=O)NC1C(OCc2ccccc2)OC(COCc2ccc(Cl)cc2)C(O)C1OCc1ccc2ccccc2c1 (stereo not drawn) [compound 368]	− (“−” indicates less than 50% inhibition at 10 μM)	–	–	–	+ (“+” indicates greater than 50% inhibition at 10 μM)	− (“−” indicates less than 50% inhibition at 10 μM)	− (“−” indicates less than 50% inhibition at 10 μM)	+ (“+” indicates greater than 50% inhibition at 10 μM)	− (“−” indicates less than 50% inhibition at 10 μM)	− (“−” indicates less than 50% inhibition at 10 μM)	− (“−” indicates less than 50% inhibition at 10 μM)	− (“−” indicates less than 50% inhibition at 10 μM)	+ (“+” indicates greater than 50% inhibition at 10 μM)	+ (“+” indicates greater than 50% inhibition at 10 μM)
N=C(N)NCC(=O)NC1COC(COCc2ccc(Cl)cc2)C(O)C1OCc1ccc(Cl)cc1 (stereo not drawn) [compound 539]	− (“−” indicates less than 50% inhibition at 10 μM)	–	–	–	− (“−” indicates less than 50% inhibition at 10 μM)	− (“−” indicates less than 50% inhibition at 10 μM)	− (“−” indicates less than 50% inhibition at 10 μM)	+ (“+” indicates greater than 50% inhibition at 10 μM)	− (“−” indicates less than 50% inhibition at 10 μM)	− (“−” indicates less than 50% inhibition at 10 μM)	− (“−” indicates less than 50% inhibition at 10 μM)	− (“−” indicates less than 50% inhibition at 10 μM)	− (“−” indicates less than 50% inhibition at 10 μM)	+ (“+” indicates greater than 50% inhibition at 10 μM)

— patent US20080009418A1, “Selective Inhibitors” (Alchemia LTD., priority 2004, published 2008)
